# Test results published in patent publication US5120748A, “Substituted 1,2,3,6-tetrahydropyridines as central nervous system agents” (Warner-Lambert Company, priority 1991, dated 1992).
# Assays:
# locomotor activity = experiment: Inhibition of locomotor activity in mice; assay type: in vivo; settings: Mus musculus, IP
# Method: (§1) The compounds of Formula I are valuable dopaminergic agents. […] Thus, the compounds of Formula I were tested for their ability to inhibit locomotor activity in mice according to the assay described by J. R. McLean, et al, Pharmacology, Biochemistry and Behavior, Volume 8, pages 97-99 (1978); for their ability to inhibit [^3 H]-spiroperidol binding in a receptor assay described by D. Griogoriadis and P. Seeman, Journal of Neurochemistry, Volume 44, pages 1925-1935 (1985); and for their ability to inhibit dopamine synthesis in rats according to the protocol described by J. R. Walters and R. H. Roth, Naunyn-Schmiedeberg's Archives of Pharmacology, Volume 296, pages 5-14 (1976). The above test methods are incorporated herein by reference. The data in the table show the dopaminergic activity of representative compounds of Formula I.
# brain dopamine synthesis = experiment: Reversal of brain dopamine synthesis in rats (inhibition of dopamine synthesis); assay type: in vivo; settings: 10 mg/kg, IP
# Method: as §1
# [1] = target: [^3 H]spiroperidol binding; experiment: Inhibition of [^3 H]spiroperidol binding in a receptor assay; settings: [^3 H]spiroperidol radioligand
# Method: as §1
Structure (SMILES),ED50 (locomotor activity),% Reversal of Brain Dopamine Synthesis in Rats (brain dopamine synthesis),IC50 [1]
"C1=C(c2ccccc2)CCN(CCSCc2cccnc2)C1.Cl.Cl [Example 1, 3-[[[2-(1,2,3,6-Tetrahydro-4-phenyl-1-pyridinyl)ethyl]thio]methyl]pyridine, dihydrochloride]",0.18 mg/kg,70%,–
"C1=C(c2cccs2)CCN(CCCSc2ccncc2)C1 [Example 2, 4-[[3-[3,6-Dihydro-4-(2-thienyl)-1(2H)-pyridinyl]propyl]thio]pyridine]",0.5 mg/kg,–,86 µM
"C1=C(c2ccccc2)CCN(CCCSc2ccncc2)C1 [Example 3, 4-[[3-(3,6-Dihydro-4-phenyl-1(2H)-pyridinyl)propyl]thio]pyridine]",0.4 mg/kg,48%,46 µM
"C1=C(c2ccccc2)CCN(CCCCSc2ccncc2)C1 [Example 4, 1,2,3,6-Tetrahydro-4-phenyl-1-[4-(4-pyridinylthio)butyl]pyridine]",1 mg/kg,82%,92 µM
"C1=C(c2cccs2)CCN(CCCCSc2ccncc2)C1.Cl.Cl [Example 5, 1,2,3,6-Tetrahydro-1-[4-(4-pyridinylthio)butyl]-4-(2-thienyl)pyridine, dihydrochloride]",1.8 mg/kg,47%,190 µM
